Results reported in PubChem BioAssay AID2165 (The Scripps Research Institute Molecular Screening Center, 2009).
Several values for one entry are separate records, joined by “and”; a condition that tells them apart may be missing. Identical values can stand only once. Activity calls are given as the source filed them. Rule as the data show it: active = IC50 below about 9 µM; inactive = the rest.

Molecular target: Tyrosine-protein kinase JAK2 (Homo sapiens) (UniProt O60674)
Experiment: JAK2V617F kinase, IRF1 reporter and Ba/F3 cytotoxicity panel, late-stage follow-up, HEL and Ba/F3 cells (AID 2165)

Chain of Tyrosine-protein kinase JAK2 (Homo sapiens) (O60674 whole entry, looked up, change not shown): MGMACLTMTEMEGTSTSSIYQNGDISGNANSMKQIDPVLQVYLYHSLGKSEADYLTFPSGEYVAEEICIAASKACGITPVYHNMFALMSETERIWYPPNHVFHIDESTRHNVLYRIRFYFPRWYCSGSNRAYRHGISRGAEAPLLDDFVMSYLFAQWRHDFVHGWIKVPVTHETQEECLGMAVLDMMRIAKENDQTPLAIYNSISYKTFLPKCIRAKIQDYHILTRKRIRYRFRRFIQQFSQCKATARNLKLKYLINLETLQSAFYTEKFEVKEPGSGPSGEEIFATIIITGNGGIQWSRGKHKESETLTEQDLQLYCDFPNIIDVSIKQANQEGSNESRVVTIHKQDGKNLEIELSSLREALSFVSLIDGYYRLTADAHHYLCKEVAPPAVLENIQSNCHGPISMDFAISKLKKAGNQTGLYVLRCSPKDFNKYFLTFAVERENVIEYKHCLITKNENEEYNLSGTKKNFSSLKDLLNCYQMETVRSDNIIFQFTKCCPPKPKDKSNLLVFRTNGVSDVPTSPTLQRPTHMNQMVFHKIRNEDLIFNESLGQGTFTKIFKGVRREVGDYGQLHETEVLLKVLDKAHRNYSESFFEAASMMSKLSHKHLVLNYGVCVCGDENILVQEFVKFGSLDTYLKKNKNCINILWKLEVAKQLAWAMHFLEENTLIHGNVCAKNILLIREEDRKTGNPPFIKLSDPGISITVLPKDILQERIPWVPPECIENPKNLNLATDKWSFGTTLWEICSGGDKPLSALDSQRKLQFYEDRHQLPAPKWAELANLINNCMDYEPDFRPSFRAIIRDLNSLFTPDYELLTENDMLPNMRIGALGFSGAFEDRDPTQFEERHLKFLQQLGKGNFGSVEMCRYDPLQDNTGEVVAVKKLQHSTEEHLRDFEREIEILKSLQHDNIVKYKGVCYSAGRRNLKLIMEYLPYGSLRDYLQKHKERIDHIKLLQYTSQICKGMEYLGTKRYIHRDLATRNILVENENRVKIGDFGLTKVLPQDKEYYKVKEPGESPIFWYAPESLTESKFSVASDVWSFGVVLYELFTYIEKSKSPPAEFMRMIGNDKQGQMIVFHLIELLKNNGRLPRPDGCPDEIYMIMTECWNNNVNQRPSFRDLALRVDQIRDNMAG

Row | Structure (SMILES) | IC50 (HEL, irf1 reporter) | IC50 (JAK2V617F) | IC50 (Ba/F3, irf1 reporter)
1 | COc1ccc(C)cc1NC(=O)Nc1ccc(Br)cn1 | > 40 µM (inactive) | > 40 µM (inactive) | –
2 | Cc1ccc(O)c(NC(=O)COc2cc(C)c(Cl)c(C)c2)c1 | – | > 40 µM (inactive) | –
3 | O=C(COc1ccccc1)Nc1ncccn1 | > 40 µM (inactive) | > 40 µM (inactive) | –
4 | Cc1cccc(N(Cc2ccccc2)C(=O)CCl)c1 | 4.76 µM | – | 1.13 µM
5 | O=C(/C=C/c1ccc(O)c(O)c1)c1ccc(S(=O)(=O)N2CCCCCC2)cc1 | > 40 µM (inactive) | – | 2.33 µM
6 | Cc1[nH]c(=O)c(C(=O)C=Cc2ccc(I)cc2)c2c1CCCC2 | 11.2 µM | > 40 µM (inactive) | 0.82 µM
7 | CC(C)c1cc(C=C(C#N)C(=O)NCCCc2ccccc2)cc(C(C)C)c1O | 1.15 µM | 3.97 µM | 0.54 µM
8 | C/C(=C\c1ccc(N(C)C)cc1)[N+](=O)[O-] | 4.29 µM | – | 2.65 µM
9 | Cc1ccc(Nc2nc(N)nc(CCl)n2)cc1 | 5.6 µM | – | 12.7 µM
10 | N#CC(C#N)=Cc1ccc(O)c(O)c1 | > 40 µM (inactive) | > 40 µM (inactive) | 0.24 µM
11 | [O-][N+]1=c2ccc(Nc3ccccc3)cc2=NC12CCCCC2 | 7.02 µM | – | 5.15 µM
12 | Cc1cccc(OCC(=O)Nc2ccc(O)cc2)c1 | – | > 40 µM (inactive) | –
13 | Nc1nc(CCl)nc(Nc2ccc3ccccc3c2)n1 | 0.958 µM | – | 7.46 µM
14 | CCOc1ccc(C(=O)C(CN2CCOCC2)c2ccccc2)cc1 (stereo unspecified) | 11 µM | – | 16.6 µM
15 | Cc1[nH]c(=O)c(C(=O)/C=C/c2ccccc2)c2c1CCCC2 | 2.03 µM | 1.15 µM | > 40 µM (inactive)
16 | O=C(CCl)N=c1sccn1Cc1ccc(Cl)cc1Cl | 2.22 µM | – | 6.08 µM
17 | CCC(C)[C@@H](NC(=O)OC(C)(C)C)c1nnc(S(=O)(=O)Cc2cccc(C)c2)o1 (stereo partly specified) | 21.7 µM | – | 0.24 µM
18 | COc1ccc(-n2nnnc2SCC(=O)c2ccc(O)c(O)c2)cc1 | 25.5 µM | – | 6.22 µM
19 | COc1cc(/C=C2\COC/C(=C\c3ccc(O)c(OC)c3)C2=O)ccc1O | 7.86 µM | – | 1.99 µM
20 | Oc1ccc(/C=N/N2CCN(C3c4ccccc4-c4ccccc43)CC2)cc1O | 5.15 µM | – | 2.47 µM
21 | Cc1[nH]c(=O)c(C(=O)C=Cc2ccc(Cl)cc2Cl)c2c1CCCC2 | 2.57 µM | 1.43 µM | 0.53 µM
22 | c1ccc(CCNc2nc(-c3ccccn3)nc3ccccc23)cc1 | 2.88 µM | – | 5.49 µM

Row | Structure (SMILES) | IC50 (HEL, irf1 reporter) | IC50 (JAK2V617F) | IC50 (Ba/F3, irf1 reporter)
23 | O=C1C=CC(=O)N1CCNc1ncc(C(F)(F)F)cc1Cl | 9.81 µM | – | 0.699 µM
24 | Cc1[nH]c(=O)c(C(=O)/C=C/c2ccccc2F)c2c1CCCC2 | 3.87 µM and 0.79 µM | 0.45 µM | 6.42 µM and 1.07 µM
25 | O=c1cnn([C@@H]2O[C@H](CO)[C@@H](O)[C@H]2O)c(=O)[nH]1 | > 40 µM (inactive) | – | > 40 µM (inactive)
26 | Cc1ccc(O)c(NC(=O)COc2ccc(I)cc2)c1 | – | 0.0268 µM | –
27 | Cc1ccc(O)c(NC(=O)COc2ccc(Br)cc2)c1 | – | 0.0327 µM | –
28 | COc1cc2ncnc(Nc3ccccc3)c2cc1OC | 5.92 µM | > 40 µM (inactive) | –
29 | CCOc1cc2ncnc(Nc3cccc(Br)c3)c2cc1OCC | 2.59 µM | 7.12 µM | 2.36 µM
30 | COc1cccc(Nc2ncnc3cc(OC)c(OC)cc23)c1 | 3.54 µM | > 40 µM (inactive) | –
31 | COc1ccc(OC)c(NS(=O)(=O)c2ccc(SC)cc2)c1 | > 40 µM (inactive) | – | 22.9 µM
32 | O=C1/C(=C/c2ccc(O)c(O)c2)SC(=S)N1Nc1ccccc1 | 10.2 µM | – | 4.04 µM
33 | CCCCn1c(=N)n(CC(=O)c2ccc(Br)s2)c2ccccc21 | 9.86 µM | – | 3.61 µM
34 | CNC(=O)c1nnsc1S(=O)c1ccc(Cl)cc1 (stereo unspecified) | 12.1 µM | – | 0.199 µM
35 | CCc1cccc(Nc2ncnc3cc(OCCOC)c(OCCOC)cc23)c1 | > 40 µM (inactive) | > 40 µM (inactive) | –
36 | CC(C)(C)c1cc(NC(=O)CCl)n(-c2ccccc2)n1 | 9.96 µM | – | 8.46 µM
37 | O=C(NCCc1cccnc1)C1CCC(=O)N(CCc2cccc(F)c2)C1 (stereo unspecified) | > 40 µM (inactive) | > 40 µM (inactive) | –
38 | CCCc1nc2ccccc2c(=O)n1/N=C/c1ccc(O)c(O)c1 | 13.1 µM | – | 2.13 µM
39 | Cc1ccccc1CS(=O)(=O)c1nnc([C@H](Cc2ccccc2)NC(=O)OC(C)(C)C)o1 | 13.5 µM | – | 1.56 µM
40 | Cc1nc([N+](=O)[O-])c(Br)n1CC(=O)c1ccc2ccccc2c1 | 21.1 µM | – | 5.1 µM
41 | CCN1C/C(=C/c2ccc(OC)c(O)c2)C(=O)/C(=C/c2ccc(OC)c(O)c2)C1 | 2.75 µM | – | 2.36 µM
42 | COc1ccc(-c2cnc3c(c2)CCC3(C#N)C#N)cc1 | 10.4 µM | – | 14.4 µM
43 | CC(C)(C)OC(=O)N[C@@H](Cc1ccccc1)c1nnc(S(=O)(=O)Cc2cccc(F)c2)o1 | 26.3 µM | – | 0.904 µM
44 | CS(=O)(=O)c1nc(-c2ccco2)cc(C(F)(F)F)n1 | 7.42 µM | – | 0.869 µM
